pIC50: −log10 of the molar value.
Each compound was assayed against T1, human protease activated receptor 1 (PAR-1) (Homo sapiens, UniProt P25116) (assay: Cellular functional in vitro test (PAR-1 antagonism, aequorin luminescence calcium readout)). Settings: recombinant HEK293-derived aequorin cell line with endogenous PAR-1; PAR-1 agonist added at its EC50, 5 min after test substance.
T1 construct: the cell stably expresses the endogenous human PAR-1 receptor; endogenous in cells; host or cells: HEK293-derived recombinant cell line expressing mitochondrial aequorin
T1 sequence (P25116 22-425): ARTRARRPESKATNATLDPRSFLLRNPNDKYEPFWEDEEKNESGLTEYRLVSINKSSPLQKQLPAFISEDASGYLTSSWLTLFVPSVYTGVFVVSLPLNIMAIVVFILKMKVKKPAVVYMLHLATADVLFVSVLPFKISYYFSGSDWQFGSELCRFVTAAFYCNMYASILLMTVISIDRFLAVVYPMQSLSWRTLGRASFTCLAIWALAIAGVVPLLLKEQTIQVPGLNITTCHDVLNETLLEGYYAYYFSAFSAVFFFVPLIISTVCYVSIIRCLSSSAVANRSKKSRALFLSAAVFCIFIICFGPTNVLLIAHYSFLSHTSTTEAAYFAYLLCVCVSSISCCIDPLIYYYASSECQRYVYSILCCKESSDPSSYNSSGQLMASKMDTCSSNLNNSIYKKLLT
Format: cell-based
Description: A recombinant cell line is used to identify antagonists of the human protease activated receptor 1 (PAR-1) and to quantify the activity of the substances described herein. The cell is originally derived from a human embryonal kidney cell (HEK293; ATCC: American Type Culture Collection, Manassas, Va. 20108, USA). The test cell line constitutively expresses a modified form of the calcium-sensitive photoprotein aequorin which, after reconstitution with the cofactor coelenterazine, emits light when the free calcium concentration in the inner mitochondrial compartment is increased (Rizzuto R, Simpson A W, Brini M, Pozzan T.; Nature 1992, 358, 325-327). Additionally, the cell stably expresses the endogenous human PAR-1 receptor and the endogenous purinergic receptor P2Y2. The resulting PAR-1 test cell responds to stimulation of the endogenous PAR-1 or P2Y2 receptor with an intracellular release of calcium ions, which can be quantified through the resulting aequorin luminescence with a suitable luminometer (Milligan G, Marshall F, Rees S, Trends in Pharmacological Sciences 1996, 17, 235-237).
For the testing of the substance specificity, the effect thereof after activation of the endogenous PAR-1 receptor is compared with the effect after activation of the endogenous purinergic P2Y2 receptor which utilizes the same intracellular signal path.
Test procedure: The cells are plated out two days (48 h) before the test in culture medium (DMEM F12, supplemented with 10% FCS, 2 mM glutamine, 20 mM HEPES, 1.4 mM pyruvate, 0.1 mg/ml gentamycin, 0.15% Na bicarbonate; BioWhittaker Cat.# BE04-687Q; B-4800 Verviers, Belgium) in 384-well microtitre plates and kept in a cell incubator (96% atmospheric humidity, 5% v/v CO2, 37° C.). On the day of the test, the culture medium is replaced by a tyrode solution (in mM: 140 sodium chloride, 5 potassium chloride, 1 magnesium chloride, 2 calcium chloride, 20 glucose, 20 HEPES), which additionally contains the cofactor coelenterazine (25 μM) and glutathione (4 mM), and the microtitre plate is then incubated for a further 3-4 hours. The test substances are then pipetted onto the microtitre plate, and 5 minutes after the transfer of the test substances into the wells of the microtitre plate the plate is transferred into the luminometer, a PAR-1 agonist concentration which corresponds to EC50 is added and the resulting light signal is immediately measured in the luminometer. To distinguish an antagonist substance action from a toxic action, the endogenous purinergic receptor is immediately subsequently activated with agonist (ATP, final concentration 10 μM) and the resulting light signal is measured.

pIC50 | Compound
8.52 | O=C(N1CCOCC1)N1CC(CSc2cccc(F)c2)CC(c2ccc(C(F)(F)F)cc2)C1 (racemic) [Example 40, (3-{[(3-Fluorophenyl)sulphanyl]methyl}-5-[4-(trifluoromethyl)phenyl]piperidin-1-yl)(morpholin-4-yl)methanone]
7.62 | O=C(N1CCOCC1)N1CC(CS(=O)(=O)C2CCCC2)CC(c2ccc(C(F)(F)F)cc2)C1 (racemic) [Example 48, {3-[(Cyclopentylsulphonyl)methyl]-5-[4-(trifluoromethyl)phenyl]piperidin-1-yl}(morpholin-4-yl)methanone]
6.75 | CC(C)(C)C(=O)NCC1CC(c2ccc(C(F)(F)F)cc2)CN(C(=O)N2CCOCC2)C1 (racemic) [Example 1, 2,2-Dimethyl-N-({1-(morpholin-4-ylcarbonyl)-5-[4-(trifluoromethyl)phenyl]piperidin-3-yl}methyl)propaneamide]
7.25 | O=C(CC1CC(c2ccc(C(F)(F)F)cc2)CN(C(=O)N2CCOCC2)C1)Nc1ccccc1 (racemic) [Example 15, 2-{1-(Morpholin-4-ylcarbonyl)-5-[4-(trifluoromethyl)phenyl]piperidin-3-yl}-N-phenylacetamide]
8.10 | CS(=O)(=O)NCC1CC(c2ccc(C(F)(F)F)cc2)CN(C(=O)N2CCOCC2)C1 (single isomer, unassigned) [Example 6, N-({1-(Morpholin-4-ylcarbonyl)-5-[4-(trifluoromethyl)phenyl]piperidin-3-yl}methyl)methanesulphonamide]

Reference: patent US20120149694A1, “Substituted piperidines” (BAYER PHARMA AKTIENGESELLSCHAFT, priority 2009, published 2012)
